Experimental findings from patent US20100040552A1, “METHODS TO EVALUATE GLUCOCORTICOID RECEPTOR AGONISTS AND ANTAGONISTS FOR EFFECTS ON NEURON-LIKE CELLS” (ROSETTA INPHARMATICS LLC, priority 2005, published 2010) are described below.

For the test, the system named is CA77 cells. Nature of the test: CA77 cell assay, real-time RT-PCR (TaqMan). The following applies: CA77 cells. It counts as cell-based, rat. As for the experimental part: Assay: CA77 cells were plated into 96 well tissue culture dishes at a density of 8×10^4 cells per well in 200 μl of PM and the cultures maintained in a humidified air atmosphere (7.5% CO2) at 37° C. This media was aspirated after 24 hours and replaced with 200 μl of GM and the cultures incubated as before, for an additional 48 hours, at which time the cultures were at approximately 90% confluency.
For the evaluation of agonist activity, the GM was aspirated, replaced with 200 μl of fresh GM containing concentrations of a drug ranging from 0.1 nM to 10,000 nM in a 10-fold dilution series. Control wells of 0 nM drug in GM and 0.1% DMSO in GM were included in the series for each drug. Each drug concentration and the two controls were evaluated on 4 wells. The cultures were maintained in a humidified air atmosphere (7.5% CO2) at 37° C. for 24 hours.
Control wells of 0 nM drug in GM containing 250 nM corticosterone and 0.1% DMSO in GM (without corticosterone) were included in the series for each drug. Each drug concentration and the two controls were evaluated on 4 wells. The cultures were maintained in a humidified air atmosphere (7.5% CO2) at 37° C. for 24 hours.
Lysis of Cells and Isolation of mRNA: Two methods were employed for the lysis of the cells and the isolation of mRNA at the end of the 24-hour incubation with the drugs.
One method was the mRNA Catcher™ Method (using Kit number 37001, sold by Invitrogen Corporation). The GM was aspirated from the cells, the cell monolayer was washed once with PBS (product number 10010, sold by Invitrogen Corporation), and then the cells were lysed in 30 μl of the kit lysis buffer containing 1% β-ME for 5 minutes at room temperature. The lysates were snap frozen in the 96-well plate by placing the plate on dry ice pellets, and the plate was then stored at −80° C.
The lysates were thawed at room temperature and then transferred into individual wells in the mRNA Catcher™ plate. The plate was covered and incubated for 90 minutes at room temperature for RNA hybridization. […]

In the case of `C[C@@H]1C[C@H]2[C@@H]3CCC4=CC(=O)C=C[C@]4(C)[C@@]3(F)[C@@H](O)C[C@]2(C)[C@@]1(O)C(=O)CO` [Dexamethasone, dexamethasone], the “Sult1a1 up-regulation as detected by RT-PCR” value worked out at 158 fold.
